From the supplement of paper PMC10883282
Counter-ions that a name gives are not always drawn. ± gives the standard deviation of the averaged measurements.

Tested on: KHOS-240S
Assay: relative viability vs DMSO control (72 h) (fraction); higher = more viable cells
Procedure, shortened: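 Relative viability is percent growth read by ATPLite and averaged over up to triplicate wells. Sarcoma cells were seeded in 384-well plates to reach 80–90% confluence and given 2.5 µl of serially diluted compound after 24 h, from source plates of 10 mM to 0.0002 mM. Incubation lasted 72 h at 37 °C, 5% CO2, with 0.1% DMSO vehicle and a 5 µM positive control, and the data were rescaled so 1 equals full and 0 equals none.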

Row | SMILES | relative viability (0.00017 µM) | relative viability (0.00051 µM) | relative viability (0.00152 µM) | relative viability (0.00457 µM) | relative viability (0.01372 µM) | relative viability (0.04115 µM) | relative viability (0.1235 µM) | relative viability (0.3704 µM) | relative viability (1.111 µM) | relative viability (3.333 µM) | relative viability (10 µM)
1 | COc1cccc2c1C(=O)c1c(O)c3c(c(O)c1C2=O)C[C@@](O)(C(=O)CO)C[C@@H]3O[C@H]1C[C@H](N)[C@H](O)[C@H](C)O1 [Doxorubicin Hydrochloride] | 1.08 ± 0.041 | 1.05 ± 0.033 | 1.05 ± 0.026 | 1.07 ± 0.039 | 0.996 ± 0.042 | 0.654 ± 0.045 | 0.459 ± 0.011 | 0.241 ± 0.018 | 0.109 ± 0.0065 | 0.124 ± 0.021 | 0.106 ± 0.0059
2 | CO[C@H]1C[C@@H]2CC[C@@H](C)[C@@](O)(O2)C(=O)C(=O)N2CCCC[C@H]2C(=O)O[C@H]([C@H](C)C[C@@H]2CC[C@@H](OP(C)(C)=O)[C@H](OC)C2)CC(=O)[C@H](C)/C=C(\C)[C@@H](O)[C@@H](OC)C(=O)[C@H](C)C[C@H](C)/C=C/C=C/C=C/1C [Ridaforolimus] | 1.03 ± 0.012 | 1.03 ± 0.027 | 0.987 ± 0.027 | 0.932 ± 0.015 | 0.919 ± 0.026 | 0.898 ± 0.022 | 0.878 ± 0.014 | 0.851 ± 0.016 | 0.826 ± 0.032 | 0.777 ± 0.018 | 0.741 ± 0.017
3 | Cc1cc(C)c(/C=C2\C(=O)Nc3ccccc32)[nH]1 [Semaxanib] | 1.01 ± 0.02 | 1.01 ± 0.032 | 1.01 ± 0.025 | 1.02 ± 0.034 | 0.99 ± 0.01 | 0.966 ± 0.013 | 0.951 ± 0.022 | 0.959 ± 0.024 | 0.844 ± 0.025 | 0.812 ± 0.023 | 0.803 ± 0.024
4 | CN1CCC(COc2cnc(-c3cccc(Cn4nc(-c5cccc(C#N)c5)ccc4=O)c3)nc2)CC1 [Tepotinib] | 1.09 ± 0.051 | 1.09 ± 0.014 | 1.1 ± 0.043 | 1.09 ± 0.035 | 1.04 ± 0.019 | 1.08 ± 0.045 | 1.04 ± 0.045 | 1.02 ± 0.031 | 1 ± 0.017 | 0.94 ± 0.095 | 0.593 ± 0.022
5 | COc1cc2c(Oc3ccc4[nH]c(C)cc4c3F)ncnc2cc1OCCCN1CCCC1 [Cediranib] | 1.06 ± 0.017 | 1.05 ± 0.021 | 1.082 ± 0.0088 | 1.07 ± 0.02 | 1.05 ± 0.013 | 1.03 ± 0.011 | 0.992 ± 0.015 | 0.922 ± 0.022 | 0.908 ± 0.013 | 0.906 ± 0.032 | 0.898 ± 0.015
6 | C[C@@H](c1ccc2nccn2c1)n1nnc2ncc(-c3cnn(C)c3)nc21 [Volitinib] | 1.041 ± 0.0092 | 1.044 ± 0.0082 | 1.07 ± 0.036 | 1.07 ± 0.024 | 1.077 ± 0.006 | 1.101 ± 0.007 | 1.09 ± 0.013 | 1.078 ± 0.0062 | 1.083 ± 0.0058 | 1.049 ± 0.0046 | 1.05 ± 0.021
7 | CC1(C)CNc2cc(NC(=O)c3cccnc3NCc3ccncc3)ccc21 [Motesanib] | 0.972 ± 0.026 | 0.982 ± 0.027 | 0.973 ± 0.03 | 0.992 ± 0.025 | 0.983 ± 0.018 | 0.96 ± 0.023 | 0.97 ± 0.013 | 0.931 ± 0.042 | 0.922 ± 0.075 | 0.874 ± 0.066 | 0.803 ± 0.03
8 | N#CC[C@H](C1CCCC1)n1cc(-c2ncnc3[nH]ccc23)cn1 [Ruxolitinib] | 0.984 ± 0.0066 | 0.984 ± 0.012 | 0.97 ± 0.043 | 0.975 ± 0.025 | 0.95 ± 0.035 | 0.966 ± 0.028 | 0.943 ± 0.037 | 0.912 ± 0.037 | 0.88 ± 0.024 | 0.773 ± 0.037 | 0.583 ± 0.015
9 | Cc1nc(NC(=O)N2CCC[C@H]2C(N)=O)sc1-c1ccnc(C(C)(C)C(F)(F)F)c1 [Alpelisib] | 1.05 ± 0.071 | 1.07 ± 0.02 | 1.03 ± 0.054 | 1.05 ± 0.054 | 1.02 ± 0.061 | 1.01 ± 0.048 | 0.914 ± 0.055 | 0.907 ± 0.039 | 0.825 ± 0.065 | 0.791 ± 0.04 | 0.697 ± 0.054
